The source of these data is ChEMBL document CHEMBL4831523, “Taichunins E-T, Isopimarane Diterpenes and a 20-nor-Isopimarane, from Aspergillus taichungensis (IBT 19404): Structures and Inhibitory Effects on RANKL-Induced Formation of Multinuclear Osteoclasts” (J Nat Prod, 2021).

Data set [1] deals with RAW264.7. The data set can be described thus: Cytotoxicity against RANKL-treated mouse RAW264.7 cells assessed as effect on cell viability at 50 uM measured after 4 days by MTT assay. The data set is classed as cell-based. The settings on record: raw264.7, 96 h, time 4 day. On the technique in general: Tetrazolium assays rely on reduction of a dye to a coloured formazan, in cell work by metabolically active cells.

Data set [2] deals with RAW264.7. The data set can be described thus: Inhibition of RANKL-induced osteoclastogenesis in mouse RAW264.7 cells assessed as reduction in Nfatc1 mRNA expression at 30 uM measured after 24 hrs by qRT-PCR method. The data set is classed as functional.
Data set [3] deals with RAW264.7. The data set can be described thus: Inhibition of RANKL-induced osteoclastogenesis in mouse RAW264.7 cells assessed as reduction in number of TRAP-positive multinuclear cells measured after 4 days by TRAP staining based assay. The data set is classed as functional, cell-based. Particulars: for inhibition: time 4.0 day.
Data set [4] deals with RAW264.7. The data set can be described thus: Inhibition of RANKL-induced osteoclastogenesis in mouse RAW264.7 cells assessed as reduction in TRAP activity at 5 uM measured after 4 days by pNPP based assay. Particulars: time 4.0 day. The data set is classed as functional, cell-based.
Data set [5] concerns RAW264.7. The data set can be described thus: Inhibition of RANKL-induced osteoclastogenesis in mouse RAW264.7 cells assessed as reduction in number of TRAP-positive multinuclear cells at 5 uM measured after 4 days by TRAP staining based assay. The settings on record: time 4.0 day. The data set is classed as functional, cell-based.
Data set [6] concerns RAW264.7. The data set can be described thus: Inhibition of RANKL-induced osteoclastogenesis in mouse RAW264.7 cells assessed as reduction in TRAP activity measured after 4 days by pNPP based assay. The data set is classed as functional, cell-based. The settings on record: dose 0.2-1 µM, time 4.0 day.
In data set [7] the test system is RAW264.7. The data set can be described thus: Inhibition of RANKL-induced osteoclastogenesis in mouse RAW264.7 cells assessed as reduction in number of TRAP-positive multinuclear cells at 0.2 uM measured after 4 days by TRAP staining based assay. Particulars: RAW264.7, 96 h, time 4 day. The data set is classed as functional.

For orientation: inhibition means the relative decrease from the control value, in per cent. Usually IC50 stands for the midpoint of a concentration-inhibition curve.

Active and inactive are the calls of the source. The rule behind the calls is not given here.

As for `C=C[C@]1(C)C=C2[C@@H](O)[C@@]3(O)OC(=O)[C@@]4(CCCC(C)(C)[C@H]34)[C@@]2(O)CC1` [SPHAEROPSIDIN B], the Activity entry with RAW264.7 [1] is “Non-Toxic”. For the same compound, the inhibition at 30 µM with RAW264.7 [2] turned out to be 63%. For the same compound, the IC50 in the data set on RAW264.7 [3] (RAW264.7, 96 h) was found to be 10.6 µM.

For the compound `C=C[C@@]1(C)C[C@@H](O)[C@@H]2[C@@]34CCCC(C)(C)[C@@H]3[C@H](O)C(=O)[C@@]2(OC4=O)[C@H]1O`, the Activity entry with RAW264.7 [1] is listed as “Non-Toxic”. The same measure, in the same setting: as for `C=C[C@@]1(C)CCc2c3c(c(O)c(OS(=O)(=O)O)c2[C@H]1O)C(C)(C)CCC3`, the entry is “Non-Toxic”; as for `C=C[C@]1(C)C=C2[C@H]3OC(OC)[C@@]4([C@H](O)CCC(C)(C)[C@@H]4[C@H]3O)[C@H]2CC1` (stereo not given in full), “Non-Toxic”. On to `C=C[C@@]1(C)C[C@@H](O)[C@H]2C(=C[C@H](O)[C@H]3C(C)(C)CCC[C@]23C)[C@H]1O`, for which the Activity entry in the data set on RAW264.7 [1] is given as “Non-Toxic”. Consider `C=C[C@]1(C)C=C2C(=O)C(=O)[C@H]3C(C)(C)CCC[C@]3(C(=O)O)[C@@]2(O)CC1`, for which, in the data set with RAW264.7 [1], the Activity result is listed as “Non-Toxic”. Consider `C=C[C@]1(C)C=C2[C@H]3OC(=O)[C@@]4(CCCC(C)(C)[C@@H]4[C@H]3O)[C@@]2(O)CC1`, for which the Activity entry in the data set with RAW264.7 [1] is on record as “Non-Toxic”.

For `C=C[C@@]1(C)CC[C@H]2C(=C[C@H](O)[C@H]3C(C)(C)CC[C@@H](O)[C@]23C)[C@H]1O`, the Activity result in the data set with RAW264.7 [1] is given as “Non-Toxic”.

As for `C=C[C@]1(C)C=C2C(=O)C[C@H]3C(C)(C)CCC[C@]3(C(=O)O)[C@@]2(O)CC1` [SPHAEROPSIDIN C], in the data set with RAW264.7 [1], the Activity result is reported as “Non-Toxic”. Consider `C=C[C@]1(C)C=C2[C@@H](O)C(=O)[C@H]3C(C)(C)CCC[C@]3(C(=O)O[C@@H]3O[C@H](CO)[C@@H](O)[C@H](O)[C@H]3O)[C@H]2CC1`, for which the Activity result in the data set on RAW264.7 [1] was “Non-Toxic”. Also, the inhibition result with RAW264.7 [4] and in the data set with RAW264.7 [5] was “Active” in each case. Also, the inhibition result in the data set on RAW264.7 [6] and in the data set on RAW264.7 [3] was “Dose-Dependent Effect” each time. Take `C=C[C@@]1(C)CC[C@]2(O)[C@@]34CCCC(C)(C)C3=C(O)C(=O)[C@@]2(OC4=O)[C@H]1O`: the Activity entry in the data set with RAW264.7 [1] is given as “Non-Toxic”. Still for that read-out and setting: to `C=C[C@]1(C)C=C2C(=O)[C@@H](O)[C@H]3C(C)(C)CCC[C@]3(C(=O)O[C@@H]3O[C@H](CO)[C@@H](O)[C@H](O)[C@H]3O)[C@H]2CC1` belongs “Non-Toxic”; to `C=C[C@]1(C)C=C2[C@@H](O)C[C@H]3C(C)(C)CCC[C@]3(C(=O)O)[C@@]2(O)[C@H](O)C1`, “Non-Toxic”. For `C=C[C@]1(C)C=C2[C@H](O)C[C@H]3C(C)(C)CC[C@@H](O)[C@]3(C)[C@H]2CC1`, in the data set with RAW264.7 [1], the Activity entry is given as “Non-Toxic”. On the same count and under the same terms, to `C=C[C@@]1(C)CC[C@H]2[C@H]([C@H]1O)[C@@H](O)C[C@H]1C(C)(C)CCC[C@]21C(=O)O` belongs “Non-Toxic”. Turning to `C=C[C@]1(C)C=C2[C@H]([C@@H](O)C1)[C@@]1(C(=O)O)CCCC(C)(C)[C@@H]1C[C@@H]2O`, the Activity result with RAW264.7 [1] was “Non-Toxic”. The inhibition result with RAW264.7 [4] and with RAW264.7 [5] was “Active” in each case. The inhibition at 0.2 µM in the data set with RAW264.7 [7] turned out to be 92%. Further, the inhibition entry with RAW264.7 [6] and in the data set on RAW264.7 [3] was “Dose-Dependent Effect” in each case. Take `C=C[C@]1(C)C=C2C(=O)C[C@H]3C(C)(C)CC[C@@H](O)[C@]3(C(=O)O)[C@H]2CC1`: the Activity entry with RAW264.7 [1] is reported as “Non-Toxic”. With `C=C[C@@]1(C)CC(=O)C2=C([C@H]1O)[C@@]1(O)OC[C@@]23CCCC(C)(C)[C@@H]3[C@H]1O`, the Activity result with RAW264.7 [1] is “Non-Toxic”. As for `C=C[C@]1(C)C=C2[C@@H](O)C[C@H]3C(C)(C)CCC[C@]3(C(=O)O)[C@H]2CC1`, the Activity result with RAW264.7 [1] is “Non-Toxic”. On to `C=C[C@]1(C)C=C2[C@H]3OC(=O)[C@@]4(CCCC(C)(C)[C@@H]4[C@H]3O)[C@H]2CC1`, for which, in the data set with RAW264.7 [1], the Activity result was “Non-Toxic”. For the same compound, the inhibition entry with RAW264.7 [4] and with RAW264.7 [5] was “Active” each time. The inhibition result in the data set with RAW264.7 [6] and with RAW264.7 [3] was “Dose-Dependent Effect” throughout.
